Key:
[1] = background knowledge; cited from earlier work
[2] = Comparative bioavailability test in 10 subjects, plasma N-acetylcysteine by HPLC (tributyl phosphine reduction, o-phthalaldehyde post-column derivatization), oral 200 mg
From the text: A process for quantitative determination of N-acetylcysteine in plasma was used, which split the active ingredient with tributyl phosphine reductively and derivatized in with a post-HPLC column using o-phthalaldehyde.
The comparative test is documented in Biopharmaceutics & Drug Disposition, Vol. 12, 343-353 (1991).

Structure (SMILES)	main effect [1]	tolerability [1]	endogenous average concentrations in plasma ([2]; human, in vivo)	Cmax relative to endogenous plasma values ([2]; one 200 mg dose, oral, up to)
CC(=O)N[C@@H](CS)C(=O)O [N-acetylcysteine]	expectorant	very well tolerated	0.08 µM	up to 20 times
N[C@@H](CSCC(=O)O)C(=O)O [carbocysteine, S-(carboxymethyl)-L-cysteine]	expectorant	very well tolerated	–	–

Reference: patent US5401514A, “Solid, fast-soluble pharmaceutical preparation containing S-(carboxymethyl)-L-cysteine and/or N-acetylcysteine” (Spirig AG, Pharmazeutische Praeparate, priority 1990, dated 1995)
